Assay type in all cases: in vivo
Data set [1] in a line: Antiamphetamine activity (method of Weissman et al., mice instead of rats). The following applies: mice. As for the experimental part: Neuroleptic drugs are said to bind to postsynaptic dopamine receptors in the brain, thereby blocking dopaminergic transmission. […] Based on this, an assay for possible neuroleptic activity was developed and is commonly used. […] 151, 339 (1966)), except that mice were used instead of rats. A comparison under the same conditions was also made of the antiamphetamine activity of a standard neuroleptic drug, haloperidol, which gave an ED50 value of 0.5 mg/Kg (Table 2).

For another data set, the system named is Pimephales promelas. Kind of data set: Acute toxicity to fish. The following applies: for % Mortality, Avg / % Mortality, single replicates (1 to 6): 2 hours. As for the experimental part:
Many compounds having insecticidal activity also show toxicity to fish. For example, rotenoids, pyrethrins, and DDT have significant toxicity to fish. For this reason, fish have been used frequently to indicate potential insecticidal activity. The present compounds were tested for acute toxicity to fish by the method described in "Methods For Acute Toxicity Tests With Fish, Macro-Invertebrates and Amphibians", EPA 660/3-75-009, Committee on Methods for Toxicity Tests With Aquatic Organisms, Environmental Protection Agency, Corvallis, OR, 1975.
The fish, commonly known as Missouri minnows or fat heads (Pimephales promelas, family, cyprinidae) were purchased from a local hatchery and equilibrated to the new surroundings for 24 hours. They were kept in deionized water, previously adjusted to pH 6.5 with phosphate buffer at 23° C. Sufficient oxygen was provided, and the fish were deprived of food during the test period.
Groups of six fish were placed in containers with different concentrations of the test compound. The percent mortality was recorded every 30 minutes. The LC 50 values (mg/L) and 95% confidence limits were determined from the percent mortality data after 2 hours of exposure from 6 separate replicates using the method of Lichfield and Wiloxon [(J. Pharmacology and Exp. Therepeutics, 96, 99-113 (1949))].

For data set [2], the system named is cabbage looper (Trichoplusia ni [Hubner]). Kind of data set: Insecticidal activity against cabbage looper. As to conditions: both application rates, 1000 and 500 ppm, 14 days. How it is done: (§1) The present compounds were tested for insecticidal activity against cabbage looper (Trichoplusia ni [Hubner]), and southern armyworm (Spodoptera eridania) at application rates of 1000 and 500 ppm. The tests were conducted in petri dishes containing a solid food source in which the test compounds had been incorporated. The petri dishes containing the treated food source were infested with second instar larvae of southern armyworms or cabbage loopers. Ten larvae per replicate and two replicates per test rate were used. Mortality data were taken 14 days after infestation.

Data set [3] deals with southern armyworm (Spodoptera eridania). Put plainly: Insecticidal activity against southern armyworm. The following applies: both application rates, 1000 and 500 ppm, 14 days. As for the experimental part: as §1
Data set [4] has as its system mosquito larvae (Aedes aegypti). Put plainly: Mosquito larvae test. As to conditions: 24 hours. As for the experimental part:
Similarly, in a test using mosquito larvae (Aedes aegypti) as the insect test species, SC-7 gave 15% mortality and SC-8 gave 93% mortality at an application rate of 100 ppm. In this test, one ml of a solution of 1000 ppm of the test compound in 10% acetone - 90% water was added to 9 ml of water in a culture tube. Ten mosquito larvae were added, and mortality readings were taken 24 hours later.

The next data set relates to mice. Put plainly: Neuroleptic / CNS-depressant activity in experimental animals (general statements).

Results on two compounds are retold here after patent US4619943A, “Neolignans of Saururus cernuus L and analogues thereof” (priority 1984, dated 1986).

≈ marks a conversion by molar mass, not a printed value. Where “and” joins values, the source holds several entries; their conditions need not be identical. Equal entries are not always repeated.

As to `O=C(CCCN1CCC(O)(c2ccc(Cl)cc2)CC1)c1ccc(F)cc1` [Haloperidol, haloperidol, reference compound], in data set [1] (Mus musculus, inhibition of amphetamine-induced agitation, stereotypy, body-hydration), the ED50 is 0.5 mg/kg. In addition, the “% Inhibition (antiamphetamine activity)” value in data set [1] (dose 0.05 mg/Kg) is 10%; in data set [1] (dose 0.1 mg/Kg), 20%; in data set [1] (dose 0.5 mg/Kg) it was 40%; in data set [1] (dose 0.75 mg/Kg) it was 50%; in data set [1] (dose 1.0 mg/Kg) it was 60%; in data set [1] (dose 1.3 mg/Kg), 70%. Besides, the “% Inhibition (antiamphetamine activity)” value in data set [1] (dose 1.8 mg/Kg) stood at 90%.
In the case of `COc1ccc(C(O)C(C)Oc2ccc([C@@H]3O[C@@H](c4ccc(OC(C)C(O)c5ccc6c(c5)OCO6)c(OC)c4)[C@@H](C)[C@@H]3C)cc2OC)cc1OC` (stereo partly drawn) [SC-7, 2α-[3-methoxy-4-{threo-3-hydroxy-3-(3,4-dimethoxyphenyl)}isopropoxyphenyl]-5β-[3-methoxy-4-{threo-3-hydroxy-3-(3,4-methylenedioxyphenyl)}isopropoxyphenyl]-3α,4β-dimethyltetrahydrofuran], the “% Mortality, Avg” value in the data set with Pimephales promelas (0.03 mg/L) worked out at 6%; in the data set with Pimephales promelas (0.06 mg/L), 38%; in the data set with Pimephales promelas (0.09 mg/L) it was 41%; in the data set on Pimephales promelas (0.13 mg/L), 58%; with Pimephales promelas (0.25 mg/L), 86%; with Pimephales promelas (0.5 mg/L), 100%. Also, the “% Mortality, single replicates (1 to 6)” value was 0% (4×) and 17% (2×) in the data set with Pimephales promelas (0.03 mg/L, 120 min); 33% (4×) and 17% (2×) in the data set on Pimephales promelas (0.06 mg/L, 120 min); 50% and 33% (5×) in the data set with Pimephales promelas (0.09 mg/L, 120 min); 83% and 67% and 50% (4×) in the data set with Pimephales promelas (0.13 mg/L, 120 min); 100% (2×) and 83% (3×) and 67% in the data set with Pimephales promelas (0.25 mg/L, 120 min); 100% in the data set with Pimephales promelas (0.5 mg/L). For the same compound, the LC50 with Pimephales promelas (2 hours of exposure, pH 6.5, 23° C) was determined as 0.115 µg/mL (≈ 0.16 µM). In addition, the “insecticidal activity, cabbage looper” value in data set [2] was “essentially inactive”. The “insecticidal activity, southern armyworm” value in data set [3] is “essentially inactive”. The compound further had a mortality at 100 ppm in data set [4] of 15%. For the same compound, in the data set with mice (experimental animals / mice), the CNS-depressant activity entry is listed as “activity similar to SC-8”. Besides, the neuroleptic activity result in the data set on mice (mouse, in vivo) is on record as “neuroleptically active”.

Usually ED50 stands for the dose that gives a 50% effect, or the effect in half of the subjects. Lower therefore signals an effect at a small dose. One may read the LC50 as the concentration that kills 50% of the test population. The low end stands for greater toxicity, the high end for lower toxicity. Usually mortality stands for the percentage killed.
